From patent US20250214951A1, “3-PHENYLISOXAZOLE DERIVATIVE, AND PHARMACEUTICAL COMPOSITION FOR PREVENTING OR TREATING EYE DISEASE, CONTAINING SAME AS ACTIVE INGREDIENT” (VASTHERA CO., LTD., priority 2022, published 2025)

Tests used:
Assay type in all cases: cell-based, human
LC3-II = assay: Autophagy activation in A2E-accumulated ARPE-19 (LC3-II Western); conditions: 25, 50, 100 μM, 12 h; FIG. 8
Description: A2E is known to inhibit intracellular autophagy. Therefore, it was measured whether example 17 compound of the present invention also increases autophagy in ARPE-19 cell lines accumulating A2E.
Specifically, ARPE-19 cell lines were dispensed into 6-well plates at a concentration of 1×10^5 cells/well and cultured for 24 hours. The cells were treated with A2E at a concentration of […] for 24 hours. Thereafter, the cells were treated with example 17 compound of the present invention at concentrations of 25, 50, and 100 μM for 12 hours each. Thereafter, cell lysate preparation and measurement of LC3-II by Western immunoblotting were performed in the same manner as in Experimental Example 7, and the results are shown in FIG. 8.

[1] = system: p62 protein phosphorylated at serine 349 (p-p62 (S349)); assay: Autophagy activation by increase of p-p62 (S349), Western immunoblotting; conditions: indicated concentrations; FIG. 14
Description: The cells were treated with the test compounds at the indicated concentrations, and the autophagy activation effect through the increase of p62 protein (p-p62 (S349)) phosphorylated at serine 349 residue was measured by Western immunoblotting using an anti-p-p62 antibody, and the results are shown in FIG. 14. The increase in the intracellular P-p62 ([…]) level is one of the major indicators of autophagy activation.

[2] = system: IL-1β, IL-6 and CXCL8 mRNA; assay: Inhibition of blue light-induced inflammatory gene expression (real-time PCR); conditions: A2E and blue light; P<0.05; FIG. 5
Description: ARPE-19 cell lines were seeded in 6-well plates at a concentration of 2×10^4 cells/well and cultured for 24 hours. The process of accumulating A2E in ARPE-19 cell lines, irradiating with blue light, and treating with example 17 compound of the present invention was performed in the same manner as in Experimental Example 5. After 24 hours of irradiating with blue light, total RNA was isolated from ARPE-19 cells using Trizol reagent (Invitrogen), and total RNA was quantified using Nanodrop (Nanodrop, Thermo Scientific). Thereafter, cDNA was synthesized using […] of total RNA, and the cDNA was amplified using the primers described in Table 5 below as a template and a real-time genetic cycler LC480 (Roche) (PCR conditions: denaturation −95° C., 10 seconds; primer binding −60° C., 10 seconds; and extension −72° C., 10 seconds).
At this time, the PCR results for 18S were used as a control to correct the relative amount of genes measured in the ARPE-19 cell line, and the experimental results are shown in FIG. 5.

ARPE-19 cells = assay: Inhibition of retinal pigment epithelial cell death induced by A2E and blue light
Description: A2E accumulated in human retinal pigment epithelial cells is known to induce cytotoxicity by blue light irradiation. Using a human retinal pigment epithelial cell line, the effect of the compound of the present invention on inhibiting cell death by blue light irradiation was measured.
The ARPE-19 cell line was dispensed into a 6-well plate at a concentration of 2×10^4 cells/well and cultured for 24 hours. In order to induce A2E accumulation in the ARPE-19 cell line, cells were treated with A2E three times at a concentration of 25 μM at 48-hour intervals. Twenty-four hours after the last A2E treatment, cells were treated with example 17 compound of the present invention twice at 24-hour intervals at concentrations of 10, 25, and 50 μM, respectively. After an additional 24 hours of culture, blue light (BL, 430 nm, 7500 lux) was irradiated for 30 minutes and cultured for 24 hours. Cell death was observed under a microscope, and the number of living cells was measured using Image J (National Institutes of Health, USA) to calculate the quantitative cell viability.

A2E-BDP in ARPE-19 cells = assay: A2E-BDP removal ability by concentration of other example compounds; conditions: indicated concentrations; FIG. 13
Description: The human retinal pigment epithelial cell line (ARPE-19) used in the experiment was provided by ATCC (American Type Culture Collection). The ARPE-19 cell line was cultured in DMEM medium containing 10% FBS. After culture, the cells were dispensed into 96-well plates at a concentration of 4×10^3 cells/well and cultured for 24 hours. The ARPE-19 cell line was treated with A2E-fluorescent labeling substance (A2E-BDP) at a concentration of 10 μM for 24 hours to induce the accumulation of A2E-BDP in the ARPE-19 cell line.
In order to evaluate the intracellular A2E removal ability of the compound of the present invention, an easily detectable A2E-fluorescent labeling substance (A2E-BDP) was used. The ARPE-19 cells prepared by the above method were treated with each test compound at a concentration of 50 μM once, and then cultured for 24 hours. The cells were lysed by adding a cell lysis buffer containing a protease inhibitor (50 mM Tris-chloride, pH 8.0, 150 mM sodium chloride, 1% NP-40, 1% sodium deoxycholate, 1% sodium dodecyl sulfate, and 2 mM ethylenediamine tetraacetic acid) to each 96-well. The prepared cell lysate was transferred to a white 96-well plate, and the fluorescence intensity was measured using a fluorescence microplate reader (VICTOR™ X3, Perkin Elmer, USA) (excitation 485 nm, emission 535 nm).
The A2E-fluorescent labeling substance (A2E-BDP) removal ability was evaluated according to Experimental Example 1 (except that the test compound was treated at the indicated concentration).

## C=CCOCc1cc(-c2cc(CC=C)ccc2OC)no1 [Example 17, 3-(5-allyl-2-methoxyphenyl)-5-((allyloxy)methyl)isoxazole]
LC3-II
  LC3-II level in A2E-accumulated ARPE-19: an increase in LC3-II
[1]
  autophagy activation through increase of p-p62 (S349): activated autophagy in a concentration-dependent manner
[2]
  expression of mRNA of inflammation-related genes (IL-1β, IL-6, and CXCL8): statistically significant reduction
ARPE-19 cells; A2E 25 μM x3, compound 10, 25, 50 μM twice, blue light 430 nm, 7500 lux, 30 min, FIG. 3 upper
  cell death induced by A2E and blue light (microscope): cell death was significantly inhibited
ARPE-19 cells; same model, FIG. 3 lower
  cell viability quantified using Image J (cell death by A2E and blue light): statistically significantly inhibited
A2E-BDP in ARPE-19 cells
  A2E-BDP removal ability by concentration (amount of A2E): concentration-dependent decrease in the amount of A2E
